Results as given in paper PMC10104807, “Modulation of tau tubulin kinases (TTBK1 and TTBK2) impacts ciliogenesis” (Scientific Reports, 2023).

What was measured:
Assay in all cases: Eurofins enzymatic radiometric kinase assay
Assay type in all cases: biochemical
Settings in all cases: ATP at Km, duplicate
[1] = target: T1, PAK3 (Homo sapiens, UniProt O75914)
T1 construct: purchased Eurofins (radiometric) / Eurofins DiscoverX scanMAX / Reaction Biology / SignalChem
Protocol: (§1) The column labeled “# < 10 PoC in enzyme panel” in Table 1 reports the number of kinases in this 17-member panel inhibited > 90% by each analog.
(§2) Details about the substrate used, protein constructs, controls, and assay protocol for these kinase assays are available at the Eurofins website: https://www.eurofinsdiscoveryservices.com. Reaction Biology Corp. (RBC) radiometric HotSpot kinase assays were carried out at the Km value for ATP in dose–response (10-pt curve) format for MYLK4, RIPK5, and YSK4 in Table S2. Details about the substrate used, protein constructs, controls, and assay protocol for these kinase assays are available at the RBC website: https://www.reactionbiology.com/list-kinase-targets-us-facility. SignalChem developed an ADP-Glo assay to test for enzymatic inhibition of PIKfyve in dose–response (10-pt curve) format in duplicate.

[2] = target: T2, MARK4 (Homo sapiens, UniProt Q96L34)
T2 construct: purchased Eurofins (radiometric) / Eurofins DiscoverX scanMAX / Reaction Biology / SignalChem
T2 sequence (Q96L34 1-752): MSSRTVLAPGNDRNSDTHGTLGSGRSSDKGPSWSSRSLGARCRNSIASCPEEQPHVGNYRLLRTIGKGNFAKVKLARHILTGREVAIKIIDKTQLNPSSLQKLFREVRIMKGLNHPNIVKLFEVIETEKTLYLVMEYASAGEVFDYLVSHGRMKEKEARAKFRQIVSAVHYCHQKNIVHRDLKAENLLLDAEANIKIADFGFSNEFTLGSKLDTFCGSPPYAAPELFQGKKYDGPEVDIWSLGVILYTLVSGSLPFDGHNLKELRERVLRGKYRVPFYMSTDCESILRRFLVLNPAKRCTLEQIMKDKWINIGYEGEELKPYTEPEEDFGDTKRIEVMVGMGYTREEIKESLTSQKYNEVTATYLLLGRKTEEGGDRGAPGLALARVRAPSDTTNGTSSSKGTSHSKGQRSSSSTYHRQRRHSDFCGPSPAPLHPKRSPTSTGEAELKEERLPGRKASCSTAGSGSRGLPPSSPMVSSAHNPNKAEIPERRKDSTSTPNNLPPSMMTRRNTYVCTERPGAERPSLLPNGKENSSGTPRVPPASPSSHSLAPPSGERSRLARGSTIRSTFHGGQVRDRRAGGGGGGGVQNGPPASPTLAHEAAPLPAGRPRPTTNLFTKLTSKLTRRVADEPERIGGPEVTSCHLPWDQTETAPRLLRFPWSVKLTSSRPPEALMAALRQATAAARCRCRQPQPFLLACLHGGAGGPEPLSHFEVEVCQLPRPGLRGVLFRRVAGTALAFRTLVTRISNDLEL
Protocol: as §1, §2

[3] = target: T3, TAOK3 (Homo sapiens, UniProt Q9H2K8)
T3 construct: purchased Eurofins (radiometric) / Eurofins DiscoverX scanMAX / Reaction Biology / SignalChem
T3 sequence (Q9H2K8 1-898): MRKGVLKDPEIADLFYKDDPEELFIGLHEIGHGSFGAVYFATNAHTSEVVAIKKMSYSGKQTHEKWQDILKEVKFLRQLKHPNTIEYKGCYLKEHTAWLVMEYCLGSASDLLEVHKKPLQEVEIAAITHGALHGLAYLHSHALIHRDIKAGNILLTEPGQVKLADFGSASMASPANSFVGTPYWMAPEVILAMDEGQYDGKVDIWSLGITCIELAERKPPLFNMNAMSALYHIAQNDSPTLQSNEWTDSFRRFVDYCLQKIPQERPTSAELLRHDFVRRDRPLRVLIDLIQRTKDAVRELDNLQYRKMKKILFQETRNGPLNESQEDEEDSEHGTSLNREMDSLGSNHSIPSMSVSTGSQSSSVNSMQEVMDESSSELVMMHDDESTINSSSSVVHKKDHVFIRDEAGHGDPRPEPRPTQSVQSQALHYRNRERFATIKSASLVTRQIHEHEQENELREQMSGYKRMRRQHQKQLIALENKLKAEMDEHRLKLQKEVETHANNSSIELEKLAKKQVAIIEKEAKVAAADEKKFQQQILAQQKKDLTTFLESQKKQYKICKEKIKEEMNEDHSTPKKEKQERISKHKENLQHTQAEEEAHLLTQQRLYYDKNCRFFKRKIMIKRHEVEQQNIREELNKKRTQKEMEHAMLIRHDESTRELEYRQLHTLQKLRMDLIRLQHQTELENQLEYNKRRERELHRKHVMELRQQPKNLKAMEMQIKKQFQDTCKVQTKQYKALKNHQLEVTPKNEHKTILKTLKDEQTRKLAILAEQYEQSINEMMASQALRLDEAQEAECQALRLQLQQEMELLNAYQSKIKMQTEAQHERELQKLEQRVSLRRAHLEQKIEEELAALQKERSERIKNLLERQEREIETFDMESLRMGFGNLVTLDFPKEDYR
Protocol: as §1, §2

[4] = target: T4, TSSK4 (Homo sapiens, UniProt Q6SA08)
T4 construct: purchased Eurofins (radiometric) / Eurofins DiscoverX scanMAX / Reaction Biology / SignalChem
T4 sequence (Q6SA08 1-328): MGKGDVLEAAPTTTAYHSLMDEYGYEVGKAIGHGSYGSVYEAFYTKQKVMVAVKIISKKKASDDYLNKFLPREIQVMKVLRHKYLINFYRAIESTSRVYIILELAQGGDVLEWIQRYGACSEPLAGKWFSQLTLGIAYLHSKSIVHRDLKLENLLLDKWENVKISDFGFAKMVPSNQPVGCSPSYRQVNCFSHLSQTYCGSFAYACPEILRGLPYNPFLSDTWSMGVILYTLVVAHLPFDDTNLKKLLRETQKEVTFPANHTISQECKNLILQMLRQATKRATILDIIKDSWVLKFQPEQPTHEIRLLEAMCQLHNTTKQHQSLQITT
Protocol: as §1, §2

[5] = target: T5, MARK3 (Homo sapiens, UniProt P27448)
T5 construct: purchased Eurofins (radiometric) / Eurofins DiscoverX scanMAX / Reaction Biology / SignalChem
Protocol: as §1, §2

T1 sequence (O75914 whole entry): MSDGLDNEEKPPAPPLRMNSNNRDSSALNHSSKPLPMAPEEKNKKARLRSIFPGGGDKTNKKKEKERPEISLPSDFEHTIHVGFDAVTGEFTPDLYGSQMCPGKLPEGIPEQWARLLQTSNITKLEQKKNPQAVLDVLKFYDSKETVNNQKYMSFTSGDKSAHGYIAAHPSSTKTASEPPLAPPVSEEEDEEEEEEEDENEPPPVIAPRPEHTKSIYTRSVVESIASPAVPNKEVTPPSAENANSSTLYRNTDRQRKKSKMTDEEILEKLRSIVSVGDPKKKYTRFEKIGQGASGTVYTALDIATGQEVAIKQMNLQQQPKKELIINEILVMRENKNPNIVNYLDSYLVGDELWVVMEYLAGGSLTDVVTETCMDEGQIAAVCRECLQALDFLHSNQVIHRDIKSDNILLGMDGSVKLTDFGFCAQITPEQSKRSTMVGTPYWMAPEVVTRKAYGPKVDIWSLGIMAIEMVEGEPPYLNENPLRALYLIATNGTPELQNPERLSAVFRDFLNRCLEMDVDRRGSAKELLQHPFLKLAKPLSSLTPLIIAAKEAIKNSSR
T5 sequence (P27448 whole entry): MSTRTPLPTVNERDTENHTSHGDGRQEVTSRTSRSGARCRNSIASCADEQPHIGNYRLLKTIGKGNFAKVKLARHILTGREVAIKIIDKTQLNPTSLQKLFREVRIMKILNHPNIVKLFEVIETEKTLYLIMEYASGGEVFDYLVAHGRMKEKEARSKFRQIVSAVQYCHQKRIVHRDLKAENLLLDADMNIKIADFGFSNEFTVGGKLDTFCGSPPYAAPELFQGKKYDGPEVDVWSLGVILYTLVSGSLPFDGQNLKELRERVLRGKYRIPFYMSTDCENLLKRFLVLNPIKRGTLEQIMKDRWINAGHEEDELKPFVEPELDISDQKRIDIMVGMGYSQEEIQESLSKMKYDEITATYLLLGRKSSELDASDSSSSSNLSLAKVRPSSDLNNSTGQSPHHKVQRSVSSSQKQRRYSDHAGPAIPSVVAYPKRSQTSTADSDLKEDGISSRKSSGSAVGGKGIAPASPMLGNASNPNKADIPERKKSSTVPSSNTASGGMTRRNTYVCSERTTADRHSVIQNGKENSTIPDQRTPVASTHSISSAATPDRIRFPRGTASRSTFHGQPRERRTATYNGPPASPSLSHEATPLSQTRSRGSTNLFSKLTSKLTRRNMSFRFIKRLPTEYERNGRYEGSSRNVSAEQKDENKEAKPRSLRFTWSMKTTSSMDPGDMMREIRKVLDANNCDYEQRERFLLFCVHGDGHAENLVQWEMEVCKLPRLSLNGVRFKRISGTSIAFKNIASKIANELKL

Structure (SMILES) | PAK3 PoC at 1 μM [1] | MARK4 PoC at 1 μM [2] | TAOK3 PoC at 1 μM [3] | TSSK4 PoC at 1 μM [4] | MARK3 PoC at 1 μM [5]
CC(C)(O)C#Cc1ccc2[nH]c3c(c2c1)-c1nc(N)ncc1CCC3 [AMG28, reference compound] | 86 PoC | 18 PoC | 9 PoC | 70 PoC | 12 PoC
CC(C)(O)C#Cc1ccc2[nH]c3c(c2c1)-c1nc(N)ncc1CC3 [Compound 1] | 86 PoC | 53 PoC | 11 PoC | 55 PoC | 56 PoC
CC(C)(O)C#Cc1ccc2[nH]c3c(c2c1)-c1nc(N)ncc1CCCC3 [Compound 2] | 100 PoC | 86 PoC | 78 PoC | 77 PoC | 76 PoC
CC(C)(O)C#Cc1ccc2[nH]cc(-c3ccnc(N)n3)c2c1 [Compound 3] | 104 PoC | 43 PoC | 20 PoC | 78 PoC | 46 PoC
COC(C)(C)C#Cc1ccc2[nH]c3c(c2c1)-c1nc(N)ncc1CCC3 [Compound 11] | 100 PoC | 103 PoC | 89 PoC | 101 PoC | 104 PoC
